From publication PMC9268013, “Design, Synthesis, and Biological Evaluation of N14-Amino Acid-Substituted Tetrandrine Derivatives as Potential Antitumor Agents against Human Colorectal Cancer” (Molecules, 2022)

Key:
HCT-15 cells [1] = assay: Live/dead FDA/PI double staining, HCT-15; format: cell-based; details: Homo sapiens, HCT-15, FDA/PI, 48 h, read-out: Viable cells retained
Method: HCT-15 or HUVEC cells were cultured in six-well plates for 24 h. The cells were washed with PBS and incubated with medium containing 0.625, 1.25, 2.5, 5, and 10 μM of 16 for 48 h. Afterwards, the medium was replaced, and the cells were washed twice with PBS, resuspended in the solution containing 100 μL FDA (0.02 mg/mL, Sigma, St. Louis, MO, USA) and 30 μL PI (0.02 mg/mL, Sigma, St. Louis, MO, USA), and treated in the dark at room temperature for 10 min. The cells were imaged with a fluorescence microscope (Nikon ECLIPSE TE2000-U, Tokyo, Japan).

HCT-15 cells [2] = assay: Cell cycle analysis by flow cytometry; format: cell-based, human; details: HCT-15, 1.25, 2.5, and 5 μM, 24 h
Method: HCT-15 cells were cultured in six-well plates overnight at 37 °C. The cells were treated with 1.25, 2.5, 5 μM of 16 or DMSO and incubated for 24 h. Afterwards, the cells were harvested, and 70% ice cold ethanol was used to fix cells at 4 °C. Subsequently, the cells were centrifuged to remove the fixative solution, washed twice with PBS, and exposed to 500 μL of PI/RNase working solution (Keygen Biotech, Nanjing, China) at 4 °C for 30 min in the dark. The cell cycle distribution was analyzed by flow cytometry.

Beclin-1 = assay: Western blot, Beclin-1 in HCT-15 cells; format: cell-based, human; details: HCT-15, increasing concentration, p < 0.01
Method: (§1) The protein levels in HCT-15 cells were evaluated via Western blot analysis. The cells were cultured in dishes (10^7 cells per dish) and incubated overnight at 37 °C, 0.625, 1.25, 2.5, and 5 μM of 16 was added in triplicate after 24 h of incubation. Then, the cells were harvested and lysed in Laemmli buffer (glycerol, 1M TRIS pH 6.8, 1% SDS, MQ H2O and 20% β-mercaptoethanol). The samples were boiled for 5 min at 95 °C, and the protein content was determined using a BCA kit. Equal amounts of 30 μg of sample were placed on a Tris/HCl gel and separated by SDS-PAGE electrophoresis. Then, the samples were transferred to a PVDF membrane (Milibo, Co., Ltd., Billyka, MA, USA) and blocked with 5% skimmed milk powder for 2 h. Diluted primary antibodies Bcl-2 (1:3000), Bax (1:10,000), caspase-3 (l:2000), p62 (1:1000), Beclin1 (1:1000), LC3 (1:2000), and β-actin (1:1000) were incubated overnight at 4 °C, followed by a horseradish peroxidase-conjugated goat anti-rabbit IgG secondary antibody (ProteinTech, China) for 2 h at room temperature. Then, immunoreactivity was developed with diaminobenzidine solution, and scanned and recorded by a gel imaging system (G:BOX Chemi XL1.4, Frederick, MD, USA).

Bax/Bcl-2 = assay: Western blot, Bax/Bcl-2 in HCT-15 cells; format: cell-based, human; details: HCT-15, only at 5 μM, p < 0.05
Method: as §1

HUVECs = assay: Tube formation assay on Matrigel; format: cell-based, human; details: HUVEC on Matrigel, 5 μM, 8 h
Method: Briefly, a 96-well plate was pre-coated with 50 μL Matrigel per well and incubated at 37 °C for 30 min. Then, 100 μL of HUVECs suspension (2 × 10^4) were added to each well. The cells were cultured with 1.25, 2.5, and 5 μM of 16 for 8 h. Subsequently, the tube formation was observed, randomly selected, and recorded by an inverted microscope.

COc1cc(NC(=O)[C@@H]2CCCN2)c2cc1Oc1ccc(cc1)C[C@H]1c3cc(c(OC)cc3CCN1C)Oc1c(OC)c(OC)cc3c1[C@H](C2)N(C)CC3 [Compound 16, 14-N-(L-proline)-tetrandrine]
viability at 5 µM (HCT-15 cells [1]; 5 μM): 18.3% | viability at 10 µM (HCT-15 cells [1]; 10 μM): 17.6% | Effect on cell cycle redistribution (HCT-15 cells [2]): no significant influence on cell cycle redistribution | Beclin-1 level (Beclin-1): markedly enhanced | Ratio of Bax/Bcl-2 (Bax/Bcl-2): enhanced | Tube formation (HUVECs): almost no tube structure
